Data as given in the NIST ThermoML archive (doi:10.1016/j.fluid.2015.10.027).

Test: heat capacity at constant pressure per volume; xn = mol fraction of the nth substance listed
Conditions: DSC

CC1CCCC(C)N1 (stereo not drawn) [2,6-dimethylpiperidine] + O
Liquid mixture 1, x1 = 0.055
Conditions	heat capacity [J/K/m3]
264 K	4559000
264.47 K	4560000
264.95 K	4546000
265.42 K	4529000
265.9 K	4518000
266.37 K	4505000
266.84 K	4492000
267.32 K	4480000
267.79 K	4471000
268.26 K	4448000
268.74 K	4442000
269.21 K	4429000
269.68 K	4420000
270.16 K	4409000
270.63 K	4398000
271.1 K	4391000
271.58 K	4375000
272.05 K	4367000
272.52 K	4356000
273 K	4342000
273.47 K	4341000
273.94 K	4336000
274.42 K	4322000
274.89 K	4313000
275.36 K	4305000
275.84 K	4293000
276.31 K	4289000
276.78 K	4278000
277.25 K	4274000
277.73 K	4266000
278.2 K	4260000
278.68 K	4252000
279.15 K	4250000
279.62 K	4239000
280.1 K	4237000
280.57 K	4227000
281.04 K	4227000
281.51 K	4221000
281.99 K	4216000
282.46 K	4215000
282.94 K	4208000
283.41 K	4206000
283.88 K	4199000
284.36 K	4195000
284.83 K	4191000
285.3 K	4189000
285.77 K	4182000
286.25 K	4178000
286.72 K	4177000
287.19 K	4174000
287.67 K	4174000
288.14 K	4172000
288.61 K	4170000
289.09 K	4171000
289.56 K	4167000
290.03 K	4166000
290.51 K	4165000
290.98 K	4166000
291.45 K	4165000
291.93 K	4166000
292.6 K	4164000
292.81 K	4147000
293.02 K	4141000
293.23 K	4164000
293.45 K	4134000
293.66 K	4144000
293.87 K	4164000
294.08 K	4166000
294.3 K	4164000
294.51 K	4144000
294.72 K	4183000
294.93 K	4155000
295.14 K	4142000
295.36 K	4144000
295.57 K	4153000
295.78 K	4178000
295.99 K	4155000
296.2 K	4175000
296.42 K	4213000
296.63 K	4189000
296.84 K	4188000
297.06 K	4228000
297.27 K	4210000
297.48 K	4217000
297.69 K	4232000
297.9 K	4249000
298.12 K	4247000
298.33 K	4277000
298.54 K	4280000
298.75 K	4295000
298.96 K	4312000
299.18 K	4375000
299.39 K	4534000

102.6 kPa, Liquid, x1 = 0.055
Conditions	heat capacity [J/K/m3]
299.6 K	5314000
299.81 K	5077000
300.03 K	5010000
300.24 K	4873000
300.45 K	4815000
300.66 K	4801000
300.88 K	4772000
301.09 K	4785000
301.3 K	4742000
301.51 K	4632000
301.73 K	4641000
301.94 K	4672000
302.15 K	4625000
302.36 K	4675000
302.57 K	4597000
302.79 K	4600000
303 K	4544000
303.21 K	4578000
303.42 K	4592000
303.64 K	4555000
303.85 K	4564000
304.06 K	4532000
304.27 K	4520000
304.49 K	4530000
304.7 K	4519000
304.91 K	4468000
305.12 K	4514000
305.33 K	4463000
305.55 K	4423000
305.76 K	4443000

CC1CCCC(C)N1 (stereo not drawn) [2,6-dimethylpiperidine] + [2H]O[2H]
Liquid mixture 1, x1 = 0.054
Conditions	heat capacity [J/K/m3]
270.36 K	4851000
270.67 K	4851000
270.98 K	4850000
271.3 K	4843000
271.61 K	4841000
271.92 K	4831000
272.23 K	4822000
272.54 K	4813000
272.85 K	4803000
273.16 K	4797000
273.47 K	4793000
273.78 K	4785000
274.1 K	4778000
274.41 K	4775000
274.72 K	4768000
275.03 K	4764000
275.34 K	4752000
275.65 K	4755000
275.96 K	4749000
276.27 K	4742000
276.58 K	4732000
276.89 K	4728000
277.21 K	4720000
277.52 K	4717000
277.83 K	4706000
278.14 K	4700000
278.45 K	4697000
278.76 K	4694000
279.07 K	4693000
279.38 K	4689000
279.69 K	4685000
280 K	4677000
280.32 K	4675000
280.63 K	4668000
280.94 K	4667000
281.25 K	4661000
281.56 K	4654000
281.87 K	4654000
282.18 K	4653000
282.49 K	4642000
282.8 K	4640000
283.12 K	4641000
283.43 K	4645000
283.74 K	4645000
284.05 K	4638000
284.36 K	4635000
284.67 K	4627000
284.98 K	4628000
285.29 K	4633000
285.6 K	4630000
285.91 K	4623000
286.23 K	4610000
286.54 K	4617000
286.85 K	4623000
287.16 K	4612000
287.47 K	4611000
287.78 K	4609000
288.09 K	4606000
288.6 K	4566000
288.82 K	4558000
289.05 K	4578000
289.28 K	4580000
289.51 K	4581000
289.74 K	4539000
289.96 K	4559000
290.19 K	4609000
290.42 K	4604000
290.65 K	4587000
290.88 K	4581000
291.11 K	4554000
291.33 K	4556000
291.56 K	4590000
291.79 K	4592000
292.02 K	4589000
292.25 K	4578000
292.48 K	4643000
292.71 K	4602000
292.94 K	4606000
293.16 K	4623000
293.39 K	4660000
293.62 K	4615000
293.85 K	4629000
294.08 K	4700000
294.31 K	4655000
294.53 K	4669000
294.76 K	4707000
294.99 K	4644000
295.22 K	4708000
295.45 K	4694000
295.68 K	4733000
295.9 K	4759000
296.13 K	4861000
296.36 K	5146000

102.6 kPa, Liquid, x1 = 0.054
Conditions	heat capacity [J/K/m3]
296.59 K	5567000
296.82 K	5424000
297.05 K	5334000
297.28 K	5260000
297.5 K	5164000
297.73 K	5179000
297.96 K	5136000
298.19 K	5070000
298.42 K	5083000
298.65 K	5094000
298.88 K	5093000
299.1 K	5111000
299.33 K	5023000
299.56 K	5049000
299.79 K	5063000
300.02 K	5028000
300.25 K	5015000
300.48 K	5009000
300.7 K	4961000
300.93 K	4977000
301.16 K	4985000
301.39 K	4958000
301.62 K	4957000
301.85 K	4945000
302.07 K	4916000
302.3 K	4889000
302.53 K	4922000
